≈ marks a conversion by molar mass, not a printed value. Some results are limits rather than exact numbers.

The values that follow come from ChEMBL document CHEMBL1139332, “Selective activity against Mycobacteriumtuberculosis of new quinoxaline 1,4-di-N-oxides” (Bioorg Med Chem, 2009).

The test system of test [1] is Mycobacterium tuberculosis. As to the kind of experiment: Antimicrobial activity against Mycobacterium tuberculosis H37Rv by microplate alamar blue assay. The format is functional. (The colour change of resazurin is a common sign of viable cells or microbes.)
In test [2] the test system is Mycobacterium tuberculosis. As to the kind of experiment: Antimicrobial activity against Mycobacterium tuberculosis H37Rv at 6.25 ug/ml by microplate alamar blue assay. The format is functional.
The test system of the next test is Vero. As to the kind of experiment: Cytotoxicity against african green monkey Vero cells after 72 hrs by MTT assay. The format is cell-based, Chlorocebus sabaeus. Conditions: vero. On the technique in general: Tetrazolium dyes change colour on reduction, which living cells bring about.
Test [3] in a line: Selectivity index, ratio of IC50 for african green monkey Vero cells to MIC for Mycobacterium tuberculosis H37Rv. Format: functional.

As a reminder, the MIC is the smallest concentration in the dilution series that meets the test's criterion for growth inhibition. As a reminder, the inhibition is the share of the control response that was lost under treatment. `COc1ccc(-c2c(C#N)[n+]([O-])c3cc(C)c(C)cc3[n+]2[O-])cc1` registered an MIC in test [1] below 0.2 µg/mL. In addition, 6.25 µg/mL produced 90% inhibition in test [2].

Compound `COc1ccc(-c2c(C#N)[n+]([O-])c3cc(C)ccc3[n+]2[O-])cc1` gave an MIC in test [1] below 0.2 µg/mL. In test [2], this compound displayed an inhibition at 6.25 µg/mL of 90%.

For `N#Cc1c(-c2ccccc2)[n+]([O-])c2cc(Cl)c(Cl)cc2[n+]1[O-]`, the MIC in test [1] is 0.2 µg/mL (≈ 0.602 µM). Further, the IC50 entry with Vero was “ND(Insoluble)”. The compound also came in with an inhibition at 6.25 µg/mL in test [2] of 90%.

`CCOC(=O)c1c(C)[n+]([O-])c2ccc(Cl)cc2[n+]1[O-]` registered an MIC in test [1] of 0.2 µg/mL (≈ 0.708 µM). For the same compound, in test [3], the Ratio is above 50.

Consider `N#Cc1c(-c2ccc(OC(F)(F)F)cc2)[n+]([O-])c2ccc(C(F)(F)F)cc2[n+]1[O-]`, for which the MIC in test [1] was below 0.2 µg/mL. Moreover, the inhibition at 6.25 µg/mL in test [2] is 90%.

`CCOC(=O)c1c(-c2ccccc2)[n+]([O-])c2cc(Cl)c(Cl)cc2[n+]1[O-]` yielded an MIC in test [1] below 0.2 µg/mL. Moreover, in test [2], the inhibition at 6.25 µg/mL amounted to 90%.

The compound `COc1ccc2c(c1)[n+]([O-])c(C#N)c(-c1ccccc1)[n+]2[O-]` gave an MIC in test [1] of 3.13 µg/mL (≈ 10.7 µM). Also, the IC50 entry in the test on Vero was “ND(Insoluble)”. This compound also registered an inhibition at 6.25 µg/mL in test [2] of 90%.

`N#Cc1c(-c2ccc(Cl)cc2)[n+]([O-])c2cc(Cl)c(Cl)cc2[n+]1[O-]` displayed an MIC in test [1] below 0.2 µg/mL. For the same compound, in the test on Vero, the IC50 result is “ND(Insoluble)”. In test [2], this compound had an inhibition at 6.25 µg/mL of 90%.

`COC(=O)c1ccc(-c2c(C#N)[n+]([O-])c3cc(Cl)c(Cl)cc3[n+]2[O-])cc1` registered an MIC in test [1] above 6.25 µg/mL.

Regarding `CC(=O)c1c(C)[n+]([O-])c2ccc(Cl)cc2[n+]1[O-]`, the lowest concentration to inhibit growth in test [1] (MIC) was 0.78 µg/mL (≈ 3.09 µM). In addition, the Ratio in test [3] is on record as 20.

For `COc1ccc(-c2c(C#N)[n+]([O-])c3ccccc3[n+]2[O-])cc1`, the MIC in test [1] was below 0.2 µg/mL. In addition, the inhibition at 6.25 µg/mL in test [2] came to 90%.

In the case of `N#Cc1c(-c2ccc(OC(F)(F)F)cc2)[n+]([O-])c2ccccc2[n+]1[O-]`, in test [1], the MIC was below 0.2 µg/mL. This compound also returned an inhibition at 6.25 µg/mL in test [2] of 90%.

In test [1], `COc1ccc(-c2c(C#N)[n+]([O-])c3cc(OC)ccc3[n+]2[O-])cc1` returned an MIC below 0.2 µg/mL. Also, the inhibition at 6.25 µg/mL in test [2] worked out at 90%.

On to `COc1ccc(-c2c(C#N)[n+]([O-])c3cc(Cl)c(Cl)cc3[n+]2[O-])cc1`, for which the MIC in test [1] is below 0.2 µg/mL. This compound also yielded an inhibition at 6.25 µg/mL in test [2] of 90%.

Consider `N#Cc1c(-c2ccc(OC(F)(F)F)cc2)[n+]([O-])c2ccc(Cl)cc2[n+]1[O-]`, for which the MIC in test [1] was below 0.2 µg/mL. Further, the inhibition at 6.25 µg/mL in test [2] is 90%.

Consider `Cc1ccc2c(c1)[n+]([O-])c(C#N)c(-c1ccc(OC(F)(F)F)cc1)[n+]2[O-]`, for which the MIC in test [1] is below 0.2 µg/mL. Further, in test [2], testing at 6.25 µg/mL gave an inhibition of 90%.

Consider `COc1ccc2c(c1)[n+]([O-])c(C#N)c(-c1ccc(OC(F)(F)F)cc1)[n+]2[O-]`, for which, in test [1], the MIC was below 0.2 µg/mL. 6.25 µg/mL produced 90% inhibition in test [2].

Regarding `Cc1cc2c(cc1C)[n+]([O-])c(-c1ccc(OC(F)(F)F)cc1)c(C#N)[n+]2[O-]`, in test [1], inhibition of growth (MIC) required 0.42 µg/mL (≈ 1.12 µM). In test [2], the inhibition at 6.25 µg/mL came out at 90%.

In turn, `N#Cc1c(-c2ccc(Cl)cc2)[n+]([O-])c2ccc(Cl)cc2[n+]1[O-]` registered an MIC in test [1] of 0.39 µg/mL (≈ 1.17 µM). For the same compound, the IC50 entry in the test on Vero is “ND(Insoluble)”. For the same compound, in test [2], at 6.25 µg/mL the inhibition was 90%.

In test [1], `Cc1ccc(-c2c(C#N)[n+]([O-])c3cc(C)ccc3[n+]2[O-])cc1` came in with an MIC of 0.78 µg/mL (≈ 2.68 µM). Besides, the IC50 entry in the test on Vero was “ND(Insoluble)”. The compound also returned an inhibition at 6.25 µg/mL in test [2] of 90%.

With `COc1ccc(-c2c(C#N)[n+]([O-])c3cc(Cl)ccc3[n+]2[O-])cc1`, the MIC in test [1] was below 0.2 µg/mL. The compound also showed an inhibition at 6.25 µg/mL in test [2] of 90%.

`N#Cc1c(-c2ccc(OC(F)(F)F)cc2)[n+]([O-])c2ccc(F)cc2[n+]1[O-]` displayed an MIC in test [1] below 0.2 µg/mL. Besides, the inhibition at 6.25 µg/mL in test [2] was 90%.

For the compound `N#Cc1c(-c2ccc(OC(F)(F)F)cc2)[n+]([O-])c2cc(Cl)c(Cl)cc2[n+]1[O-]`, the MIC in test [1] was below 0.2 µg/mL. Moreover, in test [2], the inhibition at 6.25 µg/mL is 90%.
